Measured values reported in patent US10869931B2, “Polyethylene glycol-modified angiogenesis inhibitor HM-1 and application thereof” (NANJING ANJI BIOLOGICAL TECHNOLOGY CO.,LTD, priority 2016, dated 2020).
Marks after values point to notes of the source that are not given here. Where no end group is shown, it is not given here.

Legend:
[1] = test system: Cervical cancer tumor cells; assay: MTT proliferation inhibition, cervical cancer cells; type: cell-based, human; design: concentration or dose not given beside the values; conditions: 48 h
Method: (§1) The activity of mPEG-HM-1 to inhibit the growth of various tumor cells was examined by MTT assay. The tumor cells were cultured to a concentration of 90% or more in a 37° C., 5% CO2 incubator and collected by trypsinization. The cells were resuspended in the culture medium and counted under a microscope to adjust the cell concentration to 2×10^4 cells/mL, the cell suspension was inoculated into a 96-well plate at 100 μL/well and incubated overnight at 37° C. in a 5% CO2 incubator. mPEG-HM-1 was diluted with the culture solution to each predetermined concentration. Docetaxel is diluted to the final concentration with the culture medium. After the cells were fully attached, each dilution was added to a 96-well plate (100 μL/well). The mPEG-HM-1 dilution was added as a drug-administered group, and docetaxel was added as a positive control group, and a culture solution without any drug was used as a negative control group. Incubate for 48 h at 37° C. in a 5% CO2 incubator. 5 mg/mL of MTT was added to a 96-well plate at 20 μL per well, and incubation was continued for 4 hours. The medium was aspirated, dissolved in 150 μL of DMSO per well, and gently mixed by shaking for 10 min. The absorbance was measured at a measurement wavelength of 570 nm and a reference wavelength of 630 nm using a microplate reader, and the rate of growth inhibition (proliferation inhibition, PI) was calculated. The formula is as follows: PI (%)=1−administration group/negative group
(§2) The test was repeated 3 times independently, and the results obtained by the test were expressed as mean±SD, and the test results are shown in Table 15 to Table 18.

[2] = test system: Human Umbilical Vein Endothelial Cells (HUVEC); assay: Transwell migration of HUVEC; type: cell-based; conditions: 24 h
Method: 10 mg/mL Matrigel was diluted 1:2 with HUVEC-specific medium, spread on a transwell chamber membrane, and air-dried at room temperature. HUVEC cells cultured in logarithmic growth phase were digested with trypsin digest, collected, washed twice with PBS, and resuspended in blank HUVECs-specific medium. The cells were counted under a microscope, and the cell concentration was adjusted to 1×10^5/mL. The test solutions of each group were prepared and diluted to 100 μL with a blank HUVECs-specific medium. The cells were seeded into a transwell chamber at 100 μL per well, and each set of test solution was added to the chamber. The cell culture was stimulated by adding 0.6 mL of endothelial cell culture medium containing 5% fetal bovine serum and 1% ECGS into a 24-well plate, and cultured at 5% CO2 for 24 hour at 37° c. Discard the culture medium in the well, fix it with 90% alcohol at room temperature for 30 minutes, 0.1% crystal violet for 10 min at room temperature, rinse with water, gently wipe off the unsprayed cells in the upper layer with a cotton swab, observe under microscope and select four fields to take pictures. Calculate migration inhibition (MI) according to the formula: […]
Ntest was the number of cell migration in the test group, and Ncontrol was the number of cell migration in the blank control group.
The test was repeated 3 times independently. The results obtained from the test were calculated as mean±SD, and a statistical T test was performed. *P<0.05 was a significant difference, and **P<0.01 was a very significant difference.

[3] = test system: IL-1β production by mouse peritoneal macrophages; assay: IL-1β production by mouse peritoneal macrophages (ELISA); type: cell-based; conditions: 48 h
Method: (1) IL-1β production: mice were intraperitoneally injected with 1 mL of broth (containing 6%) starch, and three days later, the mouse peritoneal macrophages were aseptically taken, washed twice with 1640 medium, and the cell concentration was adjusted to 2×10^6 cells/mL, inject into a 24-well culture plate, 1 mL per well, incubate for 3 hours in a cell culture incubator, shake once every 30 minutes, and allow the cells to fully adhere. Then, it was washed twice with the culture solution to remove unattached cells. The blank group was added with PBS, the positive group was added with the positive drug dexamethasone (Dex), the model group was not administered, to the experimental group was added low, medium and high three concentrations of mPEG-HM-1, and the culture was continued for 48 hours after the administration, 1000 r/min. Centrifuge for 15 min. The supernatant was taken as a sample for testing activity of IL-1β.
(2) Determination of IL-1β content: using R&D mouse IL-1β enzyme-linked immunosorbent assay kit, according to the kit instructions as follows: respectively, the tested samples and different concentrations of standard products, sealed with sealing tape the reaction well and incubated at 37° C. for 90 min; the plate was washed four times; the biotinylated antibody working solution (100 μL/well) was added, and the reaction well was sealed with sealing paper, incubated at 37° c. for 60 min; the plate was washed four times; Add the enzyme conjugate working solution (100 μL/well), seal the reaction well with sealing paper, incubate at 37° C. for 30 min; wash the plate four times; add color reagent (100 μL/well), incubate at 37° C. 10-20 min, add stop solution (100 μL/well), mix and measure OD450 value.

[4] = test system: adjuvant arthritis (AA) SD rats; assay: Adjuvant arthritis (AA) rat model; type: in vivo; conditions: for Joint swelling / Left and right paw swelling / Clinical score: AA SD rats; for Clinical score: maximum score 16
[5] = test system: Esophageal cancer tumor cells; assay: MTT proliferation inhibition, esophageal cancer cells; type: cell-based, human; design: concentration or dose not given beside the values; conditions: 48 h
Method: as §1, §2

[6] = test system: Melanoma tumor cells; assay: MTT proliferation inhibition, melanoma cells; type: cell-based, human; design: concentration or dose not given beside the values; conditions: 48 h
Method: as §1, §2

[7] = test system: Bladder Cancer tumor cells; assay: MTT proliferation inhibition, bladder cancer cells; type: cell-based, human; design: concentration or dose not given beside the values; conditions: 48 h
Method: as §1, §2

[8] = test system: Gastric cancer tumor cells; assay: MTT proliferation inhibition, gastric cancer cells; type: cell-based, human; design: concentration or dose not given beside the values; conditions: 48 h
Method: as §1, §2

[9] = in vivo
[10] = 40 mg/kg subcutaneous once every three days
[11] = 10 mg/kg subcutaneous once every three days
[12] = 20 mg/kg subcutaneous once every three days
[13] = 80 mg/kg subcutaneous once every three days

Substance	rate of growth inhibition [1] [%]	inhibition rate of HUVEC migration ([2]; 70 μg/mL)	cell migration number (Mean ± SD) ([2]; 90 μg/mL)	inhibition rate of HUVEC migration ([2]; 90 μg/mL)	cell migration number (Mean ± SD) ([2]; 100 μg/mL)	inhibition rate of HUVEC migration ([2]; 100 μg/mL)	IL-1β ([3]; 20 μg/mL) [pg/mL]	Inhibition Rate of IL-1β production ([3]; 20 μg/mL) [%]	IL-1β ([3]; 40 μg/mL) [pg/mL]	Inhibition Rate of IL-1β production ([3]; 40 μg/mL) [%]	IL-1β ([3]; 80 μg/mL) [pg/mL]	Inhibition Rate of IL-1β production ([3]; 80 μg/mL) [%]	rate of growth inhibition [5] [%]	rate of growth inhibition [6] [%]	rate of growth inhibition [7] [%]	rate of growth inhibition [8] [%]	AUC0-∞ [9] [mg/L/h]	CL [9] [mL/min/kg]	MRT0-∞ [9] [h]	T1/2β (half-life) [9] [h]	other results
mPEG-ALD20k-Arg-Gly-Ala-Asp-Arg-Ala-Gly-Gly-Gly-Gly-Arg-Gly-Asp ({mPEG‑ALD 20 kDa}-RGADRAGGGGRGD) [mPEG-ALD20k-HM-1]	75.66 ± 20.10	40.53%*	403.15 ± 48.80	60.82%	564.59 ± 50.42	45.13%*	729.13 ± 13.12	20.48	628.18 ± 15.34	31.49	438.93 ± 12.56	52.13	60.18 ± 15.32	80.71 ± 23.46	45.29 ± 11.63	75.23 ± 20.62	5899.46 ± 6.68	0.215 ± 0.177	18.65 ± 2.57	22.65 ± 0.21	cell migration number (Mean ± SD) ([2]; 70 μg/mL): 611.92 ± 52.08; cell migration number (Mean ± SD) ([2]; 80 μg/mL): 507.07 ± 40.74; inhibition rate of HUVEC migration ([2]; 80 μg/mL): 50.72%; Joint swelling [4, 10]: 0.76 ± 0.21 mm; Left and right paw swelling [4, 10]: 3.77 ± 0.62 mm; Clinical score [4, 10]: 5.67 ± 1.08
mPEG2-NHS5k-Arg-Gly-Ala-Asp-Arg-Ala-Gly-Gly-Gly-Gly-Arg-Gly-Asp ({mPEG2‑NHS 5 kDa}-RGADRAGGGGRGD) [mPEG2-NHS5k-HM-1]	49.15 ± 14.23	–	–	–	–	–	563.37 ± 13.21	39.17	–	–	–	–	41.35 ± 11.32	59.21 ± 18.93	38.64 ± 12.72	50.31 ± 13.29	4789.25 ± 12.08	0.878 ± 0.187	8.02 ± 5.04	8.85 ± 0.10	cell migration number (Mean ± SD) ([2]; 30 μg/mL): 611.33 ± 58.92; inhibition rate of HUVEC migration ([2]; 30 μg/mL): 41.03%*; cell migration number (Mean ± SD) ([2]; 40 μg/mL): 516.16 ± 48.34; inhibition rate of HUVEC migration ([2]; 40 μg/mL): 50.21%; cell migration number (Mean ± SD) ([2]; 50 μg/mL): 475.01 ± 50.90; inhibition rate of HUVEC migration ([2]; 50 μg/mL): 54.18%; cell migration number (Mean ± SD) ([2]; 60 μg/mL): 590.29 ± 50.72; inhibition rate of HUVEC migration ([2]; 60 μg/mL): 43.06%*; IL-1β ([3]; 5 μg/mL): 763.97 ± 15.46 pg/mL; Inhibition Rate of IL-1β production ([3]; 5 μg/mL): 17.51%; IL-1β ([3]; 10 μg/mL): 681.45 ± 12.09 pg/mL; Inhibition Rate of IL-1β production ([3]; 10 μg/mL): 26.42%; Joint swelling [4, 11]: 0.73 ± 0.16 mm; Left and right paw swelling [4, 11]: 3.91 ± 0.73 mm; Clinical score [4, 11]: 5.92 ± 1.04
mPEG-bALD10k-Arg-Gly-Ala-Asp-Arg-Ala-Gly-Gly-Gly-Gly-Arg-Gly-Asp ({mPEG‑bALD 10 kDa}-RGADRAGGGGRGD) [mPEG-bALD10k-HM-1]	80.08 ± 18.34	60.38%**	504.35 ± 48.36	53.82%**	568.57 ± 56.90	47.94%*	633.90 ± 14.73	31.26	460.53 ± 10.42	–	–	–	64.92 ± 12.17	82.33 ± 20.08	49.61 ± 12.12	75.01 ± 16.20	5108.42 ± 9.98	0.417 ± 0.175	11.97 ± 8.86	16.83 ± 0.13	cell migration number (Mean ± SD) ([2]; 50 μg/mL): 589.97 ± 56.24; inhibition rate of HUVEC migration ([2]; 50 μg/mL): 45.98%*; cell migration number (Mean ± SD) ([2]; 60 μg/mL): 483.16 ± 50.26; inhibition rate of HUVEC migration ([2]; 60 μg/mL): 55.76%; IL-1β ([3]; 10 μg/mL): 720.77 ± 16.65 pg/mL; Inhibition Rate of IL-1β production ([3]; 10 μg/mL): 21.84%; Joint swelling [4, 12]: 0.69 ± 0.13 mm; Left and right paw swelling [4, 12]: 3.73 ± 0.52 mm; Clinical score [4, 12]: 5.40 ± 1.09; in vivo immune protection effect on adjuvant arthritis model (in words) ([4]; AA rats, subcutaneous, once every three days, vs model group): has the most significant effect
mPEG-bALD40k-Arg-Gly-Ala-Asp-Arg-Ala-Gly-Gly-Gly-Gly-Arg-Gly-Asp ({mPEG‑bALD 40 kDa}-RGADRAGGGGRGD) [mPEG-bALD40k-HM-1]	70.34 ± 19.04	–	652.01 ± 52.63	40.30%*	523.03 ± 60.52	52.11%	–	–	740.78 ± 16.79	19.67	648.10 ± 14.55	29.72	57.19 ± 12.07	73.10 ± 20.55	43.82 ± 10.31	68.65 ± 16.93	5065.72 ± 9.56	0.11 ± 0.11	16.75 ± 3.29	43.88 ± 0.20	cell migration number (Mean ± SD) ([2]; 110 μg/mL): 545.63 ± 46.84; inhibition rate of HUVEC migration ([2]; 110 μg/mL): 50.04%; cell migration number (Mean ± SD) ([2]; 120 μg/mL): 596.64 ± 50.46; inhibition rate of HUVEC migration ([2]; 120 μg/mL): 45.37%*; IL-1β ([3]; 160 μg/mL): 518.91 ± 12.90 pg/mL; Inhibition Rate of IL-1β production ([3]; 160 μg/mL): 43.73%; Joint swelling [4, 13]: 0.74 ± 0.18 mm; Left and right paw swelling [4, 13]: 3.81 ± 0.62 mm; Clinical score [4, 13]: 5.78 ± 1.05
